# From publication PMC8696196 (RSC Advances, 2021)
# pEC50: −log10 of the molar value.
# Target: H3N2 E119V (A/Moscow/10/99 background, E119V mutation in the neuraminidase gene)
# Assay type: cell-based, influenza A virus
# Conditions: read-out: EC50 H3N2 E119V
row,Structure (SMILES),pEC50
1,"CCC(CC)O[C@@H]1C=C(C(=O)O)C[C@H](n2nncc2-c2cccc(N)c2)[C@H]1NC(C)=O [Compound 2j, (3R,4R,5S)-4-Acetamido-5-[5-(3-aminophenyl)-1H-1,2,3-triazol-1-yl]-3-(pentan-3-yloxy)cyclohex-1-ene-1-carboxylic acid]",< 4.00
2,"CCC(CC)O[C@@H]1C=C(C(=O)O)C[C@H](N)[C@H]1NC(C)=O [OSC, oseltamivir carboxylate, reference compound]",< 4.00
